The results in this text go back to patent US8993564B2, “7-azaindole derivatives suitable for treatment of cancers” (Merck Patent GmbH, priority 2011, dated 2015).

Structures are written as SMILES.

For one data set, the target named is T1, PDK1 (Homo sapiens, UniProt O15530).
T1 construct: His6 (N)
T1 sequence (O15530 51-556 limits assumed): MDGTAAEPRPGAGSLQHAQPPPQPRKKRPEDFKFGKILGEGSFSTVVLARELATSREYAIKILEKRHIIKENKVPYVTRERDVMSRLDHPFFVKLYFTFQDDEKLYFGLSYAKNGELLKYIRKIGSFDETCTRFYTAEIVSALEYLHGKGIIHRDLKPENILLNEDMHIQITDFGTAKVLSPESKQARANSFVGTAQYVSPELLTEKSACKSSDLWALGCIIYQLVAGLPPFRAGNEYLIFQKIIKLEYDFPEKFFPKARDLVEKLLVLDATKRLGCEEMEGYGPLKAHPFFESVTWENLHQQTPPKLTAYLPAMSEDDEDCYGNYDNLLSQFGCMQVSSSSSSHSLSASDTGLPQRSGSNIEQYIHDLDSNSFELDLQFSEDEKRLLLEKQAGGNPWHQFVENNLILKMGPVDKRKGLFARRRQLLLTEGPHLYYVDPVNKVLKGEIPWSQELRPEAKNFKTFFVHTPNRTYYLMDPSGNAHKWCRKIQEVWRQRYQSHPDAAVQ
The data set can be described thus: Test for the inhibition of PDK1 (flashplate, 33P-ATP), enzymatic. Type of data set: biochemical. The settings on record: prior art compounds vs compounds according to the invention. As for the experimental part: 4.0 Test for the Inhibition of PDK1
The experimental batches are carried out in a flashplate system with 384 wells/microtitration plate.
In each case, the PDK1 sample His6-PDK1(1-50)(3.4 nM), the PDK1 substrate biotin-bA-bA-[…] (400 nM), 4 μM ATP (with 0.2 μCi of ^33P-ATP/well) and the test substance in 50 μl of conventional experimental solution per well are incubated at 30° C. for 60 min. The test substances are employed in corresponding concentrations (if desired in a dilution series). The control is carried out without test substance. The reaction is stopped using standard methods and washed. The activity of the kinase is measured via the incorporated radioactivity in top count. In order to determine the non-specific kinase reaction (blank value), the experimental batches are carried out in the presence of 100 nM staurosporine.
The radioactivity (decompositions per minute) of the blank value (no use of test substance in the presence of staurosporine) is subtracted from all other radioactivity values. The controls (kinase activity without test substance) are set equal to 100 percent and all other radioactivity values (after subtracting the blank value) are expressed set in relation thereto (for example in % of the control).
IC50 values (50% inhibition) are determined with the aid of statistics programmes, such as, for example, RS1.

`Cn1cc(-c2cnc3[nH]cc(-c4nnc(Nc5ccccc5F)o4)c3c2)cn1` [Compound 60] returned a melting point of 295 to 297 °C. Still for that read-out and setting: then `CCOc1ccccc1Nc1nnc(-c2c[nH]c3ncc(-c4cnn(C)c4)cc23)o1` [Compound 62, (2-Ethoxyphenyl)-{5-[5-(1-methyl-1H-pyrazol-4-yl)-1H-pyrrolo[2,3-b]-pyridin-3-yl]-1,3,4-oxadiazol-2-yl}-amine], with 274 to 275 °C; and `COc1ccccc1CNc1nnc(-c2c[nH]c3ncc(-c4cnn(C)c4)cc23)o1` [Compound 63, (2-Methoxybenzyl)-{5-[5-(1-methyl-1H-pyrazol-4-yl)-1H-pyrrolo[2,3-b]-pyridin-3-yl]-1,3,4-oxadiazol-2-yl}-amine], with 253 to 254 °C. With `Cn1cc(-c2cnc3[nH]cc(-c4nnc(Nc5ccccc5)o4)c3c2)cn1` [Compound 75, {5-[5-(1-Methyl-1H-pyrazol-4-yl)-1H-pyrrolo[2,3-b]pyridin-3-yl]-1,3,4-oxadiazol-2-yl}phenylamine], the melting point was in the range of 324 to 326 °C.

Take `Cn1cc(-c2cnc3[nH]cc(-c4nnc(NCc5ccc6c(c5)OCO6)o4)c3c2)cn1` [Compound 82, Benzo-1,3-dioxol-5-ylmethyl-{5-[5-(1-methyl-1H-pyrazol-4-yl)-1H-pyrrolo[2,3-b]pyridin-3-yl]-1,3,4-oxadiazol-2-yl}amine]: the melting point is 281 to 283 °C. For the compound `c1cncc(CNc2nnc(-c3c[nH]c4ncccc34)o2)c1` [Compound 88, Pyridin-3-ylmethyl-[5-(1H-pyrrolo-[2,3-b]pyridin-3-yl)-1,3,4-oxadiazol-2-yl]amine], the “inhibition of PDK1 (enzymatic), activity compared with the compounds according to the invention” value on PDK1 is reported as “lower activity”.

Take `COc1cc(Nc2nnc(-c3c[nH]c4ncccc34)o2)cc(OC)c1` [Compound 89, (3,5-Dimethoxyphenyl)-[5-(1H-pyrrolo[2,3-b]pyridin-3-yl)-1,3,4-oxadiazol-2-yl]amine]: the “inhibition of PDK1 (enzymatic), activity compared with the compounds according to the invention” value against PDK1 is “lower activity”.

On to `COc1cccc(CNc2nnc(-c3c[nH]c4ncc(-c5cn[nH]c5)cc34)o2)c1` [Compound 90, (3-Methoxybenzyl)-{5-[5-(1H-pyrazol-4-yl)-1H-pyrrolo [2,3-b]pyridin-3-yl]-1,3,4-oxadiazol-2-yl}amine], for which the “inhibition of PDK1 (enzymatic), activity compared with the compounds according to the invention” value on PDK1 was “lower activity”.

Turning to `COc1cccc(CNc2nnc(-c3c[nH]c4ncccc34)o2)c1` [Compound 95, (3-Methoxybenzyl)-[5-(1H-pyrrolo-[2,3-b]pyridin-3-yl)-1,3,4-oxadiazol-2-yl]amine], the “inhibition of PDK1 (enzymatic), activity compared with the compounds according to the invention” value against PDK1 is reported as “lower activity”.

For orientation: melting point means the temperature of the solid-liquid transition.
